Assay results published in patent publication US9956157B2, “Composition containing fucosterol for skin whitening or moisturizing” (INDUSTRY-ACADEMIC COOPERATION FOUNDATION, YONSEI UNIVERSITY, priority 2014, dated 2018).

Experiments:
Format in all cases: cell-based
loricrin = assay: Loricrin mRNA expression (RT-PCR) in HaCaT human keratinocytes; conditions: HaCaT cells, fucosterol 5, 10, 20 μM, 24 hrs, FIG. 9
Protocol: HaCaT human keratinocytes were incubated in a Dulbecco's Modified Eagle's Media (DMEM) medium including 10% fetal bovine serum and then put in a 6-well plate with 2×10^5 cell/ml (the final volume of 3 ml). After being incubated for 24 hrs, the medium was removed and fucosterol which was dissolved in the DMEM medium was treated at 5, 10, and 20 μM concentrations, respectively. After 24 hrs, the total RNA was collected by using a TRIzol reagent (Invitrogen, Carlsbad, Calif., USA) and reverse-transcribed and then a reverse transcription-polymerase chain reaction (RT-PCR) analysis was performed below. First, for cDNA synthesis, the RNA was reverse-transcribed by reverse transcriptase. The RT-PCR was performed by specific primers below and the result was illustrated in FIG. 9.

[1] = tested on: TRP-1 (tyrosinase-related protein 1); assay: TRP-1 protein expression (western blot) in B16F10 melanoma cells; conditions: 200 nM α-MSH, fucosterol 5 and 20 μM, 24 hrs, FIG. 6
Protocol: B16F10 melanoma cells were incubated in a DMEM medium including 10% fetal bovine serum and then added in a 6-well plate with 2.5×10^5 cell/mL (the final volume of 3 mL). After being incubated for 24 hrs, the medium was removed and fucosterol which was dissolved in the DMEM medium including 200 nM α-MSH was treated at 5 and 20 μM of concentrations, respectively. The cells after 24 hrs were lysed with a NP40 buffer solution including proteinase inhibitor cocktail and the protein amount extracted from the cells was quantified by using a Bradford reagent. The quantified protein was boiled for 5 min and isolated by electrophoresis with 10% SDS-PAGE to transfer the isolated proteins to a nitrocellular membrane. A primary antibody of […] and […] was diluted in 2.5% bovine serum albumin at a ratio of 1:1000 and reacted with the protein transferred to the nitrocellular membrane for 20 hrs at room temperature. The primary antibody was reacted and then the nitrocellular membrane was washed three times by using the TBST for 10 min. […] As the measured result, the protein expression of […] and […] was verified and it was shown that the loading amount of the protein was constant by α-tubulin.

[2] = tested on: MITF (microphthalmia transcription factor); assay: MITF mRNA expression (RT-PCR) in B16F10 melanoma cells; conditions: 200 nM α-MSH, fucosterol 5 and 20 μM, 24 hrs, FIG. 7
Protocol: B16F10 melanoma cells were incubated in a DMEM medium including 10% fetal bovine serum and then added in a 6-well plate with 2.5×10^5 cell/mL (the final volume of 3 mL). After being incubated for 24 hrs, the medium was removed and fucosterol which was dissolved in the DMEM medium including 200 nM α-MSH was treated at 5 and 20 μM of concentrations, respectively. After 24 hrs, the total RNA was isolated by using a TRIzol reagent (Invitrogen, Carlsbad, Calif., USA). The isolated total RNAs were quantified by using a nano-drop (ND-1000). The quantified RNA was synthesized to cDNA by using reverse transcriptase and a PCR machine (Applied biosystems, Foster city, CA, USA) and then the PCR was performed with specific primers below.
As the PCR result, the amplified cDNA was isolated with a 1.5% agarose gel by electrophoresis and cDNA bands were verified by using a G:BOX EF imaging system (Syngene, Cambridge, UK), and the result was illustrated in FIG. 7.

filaggrin = assay: Filaggrin protein expression (western blot) in HaCaT human keratinocytes; conditions: HaCaT cells, fucosterol 5, 10, 20 μM, 24 hrs, FIG. 12
Protocol: (§1) HaCaT human keratinocytes were incubated in a Dulbecco's Modified Eagle's Media (DMEM) medium including 10% fetal bovine serum and then put in a 6-well plate with 2×10^5 cell/ml (the final volume of 3 ml). After being incubated for 24 hrs, the medium was removed and fucosterol which was dissolved in the DMEM medium was treated at 5, 10, and 20 μM concentrations, respectively. After 24 hrs, the HaCaT human keratinocytes were lysed with a NP40 buffer solution including proteinase inhibitor cocktail. The protein amount extracted from the HaCaT human keratinocytes was quantified by using a Bradford method. The sample was boiled for 5 min and then the same amount of protein ([…]) was isolated by electrophoresis with 10% SDS-PAGE. The isolated proteins after electrophoresis were transferred to a nitrocellular membrane and western blot was performed. A primary antibody was reacted and the nitrocellular membrane was washed three times by using Tris-buffer saline tween20 (TBST) for 10 min. In this case, the kind and the dilution of the primary antibody used in the present invention is 1:1000. In a secondary antibody reaction, a secondary antibody was put in the membrane performing the primary antibody reaction and reacted for 2 hrs at room temperature. In this case, a dilution of the secondary antibody was 1:5000. […]

involucrin = assay: Involucrin protein expression (western blot) in HaCaT human keratinocytes; conditions: HaCaT cells, fucosterol 5, 10, 20 μM, 24 hrs, FIG. 10
Protocol: as §1

C/C=C(\CC[C@@H](C)[C@H]1CC[C@H]2[C@@H]3CC=C4C[C@@H](O)CC[C@]4(C)[C@H]3CC[C@]12C)C(C)C [fucosterol]
mRNA expression of loricrin (loricrin): increased | protein expression of TRP-1 [1]: reduced | mRNA amount of MITF [2]: reduced | protein expression of filaggrin (filaggrin): increased | protein expression of involucrin (involucrin): increased
